Results from US11718609B2, “Heparanase inhibitors and use thereof” (Beta Therapeutics Pty Ltd, priority 2016, dated 2023).
Each block holds one compound with its values, some of them ahead of it.

Experiments:
[1] = target: Recombinant human active heparanase (Homo sapiens (Human), UniProt Q9Y251); assay: Heparanase inhibition assay (colorimetric, fondaparinux substrate, WST-1 detection); type: biochemical; conditions: for IC50: average ± SEM, direct comparison to OGT_2115, read-out: Average IC50 (μM ± SEM), heparanase enzyme inhibition
Description: Recombinant human active heparanase derived from Chinese hamster ovary cells was from R&D Systems. […] Following initiation of the reaction by addition of fondaparinux, the plate was sealed with adhesive film and incubated at 37° C. for 20-24 h. […] For the enzymatic assays, test compounds were dissolved and added to the assay at varying concentrations to calculate the level of inhibition.
Heparanase inhibition activity of various compounds of the invention was determined using standard methods.

C57BL6J mice = assay: Photo-oxidative damage of the retina, retinal function by electroretinography (ERG); conditions: intravitreal injection 1 μL of 200 μM, 5 days photo-oxidative damage
Description: Significant trends in data points were ascertained using the one-way or two-way analysis of variance (ANOVA) to determine statistical significance (p<0.05) that is indicated by asterisks (*).
C57BL6J mice were born and raised in 12:12 hrs light:dark cycle of 5 lux in individually vented cages, with free access to food and water. Age-matched adult mice (8-10 weeks) were randomly assigned to light damage and dim-reared control (non-light damage) groups. Animals of the light damage group were continuously exposed to 100 k lux white LED light for 1, 3, 5 and 7 days. […] Dim-reared control animals were also pupil dilated twice each day, but were returned to dim cyclic light (12:12 hrs light:dark, 5 lux light).
During bright-light exposure, animals were housed in plastic boxes (two per box), with free access to food and water. The floors of the cages were coated with a reflective Perspex surface and illuminated by a 100-W 65000 k natural white LED (high CRI LED, Yuji, Beijing) mounted 18 cm above the plastic boxes. The LED light has an emission spectrum which more closely resembles daylight than halogen or incandescent bulbs. […] Animals were provided with bedding, food and water during the time course of light exposure, and their behaviour was monitored daily. […]

db/db mice [2] = assay: Insulin content of pancreatic islets in db/db mice (anti-insulin staining, morphometric analysis); type: in vivo, mouse; conditions: 50 mg/kg daily IP
Description: FIG. 5. Insulin content in pancreas sections in db/db mice a model of Type 2 diabetes. Mice were treated daily with 50 mg/kg PI-88 IP from 4 weeks of age. Onset of clinical diabetes was determined by measuring urine glucose twice weekly with Multistix reagent strips and confirmed by measuring non-fasting blood glucose levels in tail vein blood using a MediSense glucometer with hyperglycemia defined as 2 consecutive blood glucose readings of 16 mmol/l or greater. Insulin was detected by anti-insulin antibody staining.
The db/db mouse has defective leptin signalling resulting from a point mutation in the leptin receptor gene. Plasma insulin levels become elevated very early in life (10-14 days of age), and the affected animals are obese by the time they are 3-4 weeks old. The animals are insulin resistant, hypertriglyceridemic, and have impaired glucose tolerance.
db/db mice were treated with saline or 50 mg/kg of PI-88 by daily intraperitoneal injection. At the cessation of treatment pancreatic islets were isolated and stained for insulin and the level of insulin expression assessed by quantitative morphometric analyses.

db/db mice [3] = assay: Intra-islet heparan sulfate content in db/db mice (Alcian blue staining, morphometric analysis); type: in vivo, mouse; conditions: 50 mg/kg daily IP
Description: FIG. 6. Intra-islet HS content in pancreas sections in treated db/db mice. Mice were treated daily with 50 mg/kg PI-88 IP from 4 weeks of age. Onset of clinical diabetes was determined by measuring urine glucose twice weekly with Multistix reagent strips and confirmed by measuring non-fasting blood glucose levels in tail vein blood using a MediSense glucometer with hyperglycemia defined as 2 consecutive blood glucose readings of 16 mmol/l or greater. Islet HS was detected by Alcian blue staining.
db/db mice were treated with saline or 50 mg/kg of PI-88 daily by intraperitoneal injection. At the cessation of treatment pancreatic islets were isolated and stained with alcian blue to visualise heparan sulfate and the heparan sulfate content of the islets was assessed by quantitative morphometric analyses.

[4] = cited from earlier work

Sequence of Recombinant human active heparanase (Q9Y251 158-543): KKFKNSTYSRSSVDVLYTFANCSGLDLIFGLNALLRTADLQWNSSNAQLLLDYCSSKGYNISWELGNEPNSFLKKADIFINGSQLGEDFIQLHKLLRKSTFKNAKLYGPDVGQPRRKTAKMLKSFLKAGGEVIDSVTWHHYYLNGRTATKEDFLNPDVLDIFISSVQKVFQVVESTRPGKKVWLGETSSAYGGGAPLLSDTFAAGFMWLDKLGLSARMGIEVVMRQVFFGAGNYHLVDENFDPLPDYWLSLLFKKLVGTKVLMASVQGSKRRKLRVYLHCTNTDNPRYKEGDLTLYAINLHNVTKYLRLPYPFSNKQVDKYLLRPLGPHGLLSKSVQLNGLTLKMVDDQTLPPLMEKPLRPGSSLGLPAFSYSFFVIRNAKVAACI
Sequence of Recombinant human active heparanase (Q9Y251 36-109): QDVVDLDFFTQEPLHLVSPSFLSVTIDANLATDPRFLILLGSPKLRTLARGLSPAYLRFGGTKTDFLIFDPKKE

Compound: COc1cc2nc(-c3cccc4cccnc34)nc(NCCc3ccccc3)c2cc1OC [BT2164]
IC50 [1]: 3.13 ± 0.72 µM

Compound: COc1cc2nc(NCCNC(=O)c3nnc(-c4ccccc4)o3)nc(N)c2cc1OC.Cl [BT2172]
ERG a-wave and b-wave responses versus control (PBS) (C57BL6J mice): higher a- and b-wave responses than the control (PBS) group
retinal function (ERG) (C57BL6J mice): maintained retinal function

Compound: COc1cc2nc(N3CCN(C(=O)C4COc5ccccc5O4)CC3)nc(N)c2cc1OC (stereo not drawn) [doxazosin, reference compound]
heparanase inhibition (in words) [1]: inhibits heparanase

Compound: PI-88
expression of insulin in islets (db/db mice [2]): increased compared to the saline treated db/db mice and is near to the level of insulin expression in the wild-type mice
islet heparan sulfate levels (db/db mice [3]): increased compared to the saline treated db/db mice and are near to the levels of heparan sulfate in the islets of wild-type mice
half-life [4]: approximately 30 minutes

Further lines, results first:

IC50 [1]: 4 ± 0.09 µM
Compound: COc1cc2nc(NCCNC(=O)c3nnc(-c4cc5ccccc5[nH]4)o3)nc(N)c2cc1OC [BT2169]

IC50 [1]: 3.64 ± 0.62 µM
Compound: COc1cc2nc(-c3cccc4cccnc34)nc(NCCNC(=O)c3nnc(-c4ccccc4)o3)c2cc1OC [BT2187]
